Assay results: patent US8513242B2, “Pyrimidine compounds and methods of making and using same” (Cystic Fibrosis Foundation Therapeutics, Inc., priority 2008, dated 2013)

How the values were obtained:
[1] = target: T1, ΔF508 CFTR (Homo sapiens, UniProt P13569, DEL508-508); assay: Dual corrector potentiator assay, potentiator mode: FRT cell Ussing chamber short circuit current, compound added to mucosal solution; assay type: cell-based; details: for Potentiator Efficacy: ΔI(forskolin+compound)/ΔI(forskolin+IBMX+genistein)
T1 construct: expressed in transfected cells; host or cells: FRT epithelial cells (Fischer rat thyroid)
Experimental: (§1) FRT epithelial cell monolayers were grown on Snapwell filter inserts and optionally treated with a reference corrector N-(2-(5-chloro-2-methoxyphenylamino)-4′-methyl-4,5′-bithiazol-2′-yl)benzamide. The cells were exposed to a compound of the invention for 24 hours prior to the assay. The inserts were transferred to a Navicyte Ussing recording chamber and superfused with a HEPES buffered physiological saline (HB-PS) with composition (in mM): NaCl, 137; KCl, 4.0; CaCl2, 1.8; MgCl2, 1; HEPES, 10; Glucose, 10; pH adjusted to 7.4 with NaOH. The mucosal solution was 10CF-PS (composition in mM: Na-gluconate, 137; KCl, 4; CaCl2, 1.8; MgCl2, 1; HEPES, 10; Mannitol, 10; pH adjusted to 7.4 with N-methyl-D-glucamine) to create a transepithelial Cl ion gradient. A Physiologic Instruments VCC MC6 epithelial voltage clamp (Physiologic Instruments, Inc., San Diego, Calif.) was used to record the short circuit current (ISC).
(§2) Inserts were voltage clamped at 0 mV to measure the ISC. 10CF-PS solution (5 ml) was added to the mucosal (top) side of the Snapwell filter and HB-PS solution (5 mL) was added to the serosal (bottom) side of the Snapwell filter insert to permeabilize the serosal membrane. Solution additions and replacements in the Navicyte chambers were performed in a way to maintain a hydrostatic pressure gradient from mucosal to serosal sides of the filters by maintaining a solution level greater or equal in the mucosal chamber relative to the serosal chamber during solution changes. After acquisition of at least 10 minutes of baseline current, agonists (final concentrations: 10 μM forskolin, 100 μM 3-isobutyl-1-methylxanthine [IBMX] and 20 μM genistein) and antagonist (final concentration: 10 μM CFTRinh-172) were applied sequentially and cumulatively at 10 minute intervals for forskolin and IBMX, and at 15 minute intervals for genistein and CFTRinh-172, to both serosal and mucosal epithelial surfaces.
(§3) Agonists were prepared as 200×-1000× concentrated solutions in HP-PS and 10CF-PS. Agonist stocks prepared in HB-PS were added to the serosal surface, while agonist stocks prepared in 10CF-PS were added to the mucosal surface. In potentiator assays, appropriate volumes from 10 mM test compound solution in DMSO were added to the mucosal 10CF-PS solution. Agonists were diluted to the final working concentration in the Navicyte chamber by removal of chamber solution and addition of the concentrated stock solution. Order of solution removal was serosal then mucosal and for solution additions mucosal then serosal in order to maintain a hydrostatic pressure gradient from mucosal to serosal during solution changes. Transepithelial resistance was monitored every 20 s with 10 mV voltage steps.
(§4) EC50 values are defined as the concentration of compound that gives a >25% increase in whole cell Cl^− conductance (compared to DMSO at 37° C. as a vehicle) at 10 μM. The corrector efficacy was measured as a percentage change in agonist+compound vs. agonist: ΔIcompound(forskolin+IBMX+genistein)/ΔIvehicle(forskolin+IBMX+genistein). The potentiator efficacy was measured as a percentage change in forskolin activity: ΔI(forskolin+compound)/ΔI(forskolin+IBMX+genistein).

[2] = target: T1, ΔF508 CFTR; assay: Dual corrector potentiator assay, corrector mode: FRT cell Ussing chamber short circuit current after 24 hours exposure to compound; assay type: cell-based; details: for EC50: FRT cell monolayers, 24 hours exposure, EC50 defined as concentration giving >25% increase in whole cell Cl− conductance vs DMSO at 37° C.; for Corrector Efficacy: ΔIcompound(forskolin+IBMX+genistein)/ΔIvehicle(forskolin+IBMX+genistein)
Experimental: as §1, §2, §3, §4

[3] = ** cells treated with reference corrector N-(2-(5-chloro-2-methoxyphenylamino)-4′-methyl-4,5′-bithiazol-2′-yl)benzamide
[4] = pretreatment of cells not given

T1 sequence (P13569 with tags, fused parts or gaps DEL508-508): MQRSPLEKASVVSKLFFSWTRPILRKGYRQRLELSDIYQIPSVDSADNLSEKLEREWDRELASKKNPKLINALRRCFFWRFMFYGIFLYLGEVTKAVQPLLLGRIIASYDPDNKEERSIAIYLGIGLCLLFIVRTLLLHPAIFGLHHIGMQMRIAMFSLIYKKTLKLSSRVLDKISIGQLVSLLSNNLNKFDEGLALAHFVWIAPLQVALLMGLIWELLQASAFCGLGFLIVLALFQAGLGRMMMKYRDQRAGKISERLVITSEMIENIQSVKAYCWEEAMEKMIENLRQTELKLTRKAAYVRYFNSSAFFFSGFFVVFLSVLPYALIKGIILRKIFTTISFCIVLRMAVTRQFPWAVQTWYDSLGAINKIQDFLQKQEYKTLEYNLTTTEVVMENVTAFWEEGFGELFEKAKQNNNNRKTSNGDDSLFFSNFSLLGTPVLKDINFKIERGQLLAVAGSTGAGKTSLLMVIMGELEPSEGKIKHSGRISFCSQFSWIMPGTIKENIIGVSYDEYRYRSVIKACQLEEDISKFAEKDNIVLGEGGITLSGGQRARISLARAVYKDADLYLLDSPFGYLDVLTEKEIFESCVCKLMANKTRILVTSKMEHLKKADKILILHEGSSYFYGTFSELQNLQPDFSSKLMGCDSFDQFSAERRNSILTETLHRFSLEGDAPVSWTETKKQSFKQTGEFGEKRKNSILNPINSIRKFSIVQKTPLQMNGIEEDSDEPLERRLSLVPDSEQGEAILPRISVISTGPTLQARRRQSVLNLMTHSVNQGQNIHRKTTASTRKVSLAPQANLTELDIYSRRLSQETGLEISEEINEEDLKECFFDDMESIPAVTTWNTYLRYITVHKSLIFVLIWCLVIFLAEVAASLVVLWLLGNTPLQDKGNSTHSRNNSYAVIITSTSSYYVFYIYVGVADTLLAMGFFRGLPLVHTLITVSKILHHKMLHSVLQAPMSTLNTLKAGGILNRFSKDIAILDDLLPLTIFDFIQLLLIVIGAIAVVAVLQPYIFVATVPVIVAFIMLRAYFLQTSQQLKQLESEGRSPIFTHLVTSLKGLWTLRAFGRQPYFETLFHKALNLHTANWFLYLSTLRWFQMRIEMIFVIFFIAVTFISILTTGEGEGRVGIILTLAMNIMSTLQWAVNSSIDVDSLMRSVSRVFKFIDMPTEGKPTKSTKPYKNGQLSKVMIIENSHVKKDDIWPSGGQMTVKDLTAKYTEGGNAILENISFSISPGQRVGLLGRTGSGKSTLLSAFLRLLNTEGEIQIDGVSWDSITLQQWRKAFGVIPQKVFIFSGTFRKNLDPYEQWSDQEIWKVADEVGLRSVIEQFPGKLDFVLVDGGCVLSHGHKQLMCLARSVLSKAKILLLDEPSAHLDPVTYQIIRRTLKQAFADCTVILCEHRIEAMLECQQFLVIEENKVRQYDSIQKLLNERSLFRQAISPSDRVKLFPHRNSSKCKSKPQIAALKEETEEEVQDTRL

Structure (SMILES): C[C@H]1CC[C@@H](Nc2ncc(-c3ccc(OC(F)(F)F)cc3)cn2)CC1 [Example 4, N-((1S,4S)-4-Methylcyclohexyl)-5-(4-(trifluoromethoxy)phenyl)pyrimidin-2-amine]
- EC50 ([1]; * vehicle treated cells): < 3 µM
- Potentiator Efficacy ([1]; * vehicle treated cells): +++* (+++=>0.6)
- EC50 [1, 3]: < 3 µM
- Potentiator Efficacy [1, 3]: +++** (+++=>0.6)
- EC50 [2]: < 10 µM
- Corrector Efficacy [2]: +++ (+++=>3)

Structure (SMILES): COc1nc(N[C@H]2CC[C@@H](C)CC2)ncc1-c1ccc(OC(C)C)cc1 [Example 7, 5-(4-Isopropoxyphenyl)-4-methoxy-N-((1S,4S)-4-methylcyclohexyl)pyrimidin-2-amine]
- EC50 [1, 3]: < 10 µM
- Potentiator Efficacy [1, 3]: ++** (++=0.3-0.6)
- EC50 [2]: < 10 µM
- Corrector Efficacy [2]: +++ (+++=>3)

Structure (SMILES): C[C@H]1CC[C@@H](Nc2ncc(-c3ccc(OC(F)F)cc3)cn2)CC1 [Example 19, 5-(4-(difluoromethoxy)phenyl)-N-((1s,4s)-4-methylcyclohexyl)pyrimidin-2-amine]
- EC50 [1, 3]: < 3 µM
- Potentiator Efficacy [1, 3]: +++** (+++=>0.6)
- EC50 [2]: < 10 µM
- Corrector Efficacy [2]: +++ (+++=>3)

Structure (SMILES): CC(C)Oc1ccc(-c2cnc(N[C@H]3CC[C@@H](C)CC3)nc2)cc1 [Example 23, 5-(4-isopropoxyphenyl)-N-((1s,4s)-4-methylcyclohexyl)pyrimidin-2-amine]
- EC50 [1, 3]: < 3 µM
- Potentiator Efficacy [1, 3]: +++** (+++=>0.6)
- EC50 [2]: < 10 µM
- Corrector Efficacy [2]: +++ (+++=>3)

Structure (SMILES): COc1ccc(-c2cnc(N[C@H]3CC[C@@H](C)CC3)nc2)cc1 [Example 27, 5-(4-methoxyphenyl)-N-((1s,4s)-4-methylcyclohexyl)pyrimidin-2-amine]
- EC50 [1, 3]: < 3 µM
- Potentiator Efficacy [1, 3]: ++** (++=0.3-0.6)
- EC50 [2]: < 10 µM
- Corrector Efficacy [2]: +++ (+++=>3)

Structure (SMILES): COc1nc(N[C@H]2CC[C@@H](C)CC2)ncc1-c1ccc(OC(F)(F)F)cc1 [Example 58, 4-methoxy-N-((1s,4s)-4-methylcyclohexyl)-5-(4-(trifluoromethoxy)phenyl)pyrimidin-2-amine]
- EC50 [1, 3]: < 3 µM
- Potentiator Efficacy [1, 3]: +++** (+++=>0.6)
- EC50 [2]: < 10 µM
- Corrector Efficacy [2]: +++ (+++=>3)

Structure (SMILES): COc1nc(N[C@H]2CC[C@@H](C)CC2)ncc1-c1ccc(OC(F)F)cc1 [Example 59, 5-(4-(difluoromethoxy)phenyl)-4-methoxy-N-((1s,4s)-4-methylcyclohexyl)pyrimidin-2-amine]
- EC50 [1, 3]: < 3 µM
- Potentiator Efficacy [1, 3]: ++** (++=0.3-0.6)
- EC50 [2]: < 10 µM
- Corrector Efficacy [2]: +++ (+++=>3)

Structure (SMILES): COc1nc(N[C@H]2CC[C@@H](C)CC2)ncc1-c1ccc(OC(C)C)cc1 [Example 102, 5-(4-isopropoxyphenyl)-4-methoxy-N-((1s,4s)-4-methylcyclohexyl)pyrimidin-2-amine]
- EC50 [1, 4]: < 3 µM
- Potentiator Efficacy [1, 4]: ++ (++=0.3-0.6)

Structure (SMILES): COc1nc(N[C@H]2CC[C@@H](C)CC2)ncc1-c1ccc(OC(F)(F)F)cc1 [Example 103, 4-methoxy-N-((1s,4s)-4-methylcyclohexyl)-5-(4-(trifluoromethoxy)phenyl)pyrimidin-2-amine]
- EC50 [1, 4]: < 3 µM
- Potentiator Efficacy [1, 4]: ++ (++=0.3-0.6)

Structure (SMILES): COc1nc(N[C@H]2CC[C@@H](C)CC2)ncc1-c1ccc(OC(F)F)cc1 [Example 104, 5-(4-(difluoromethoxy)phenyl)-4-methoxy-N-((1s,4s)-4-methylcyclohexyl)pyrimidin-2-amine]
- EC50 [1, 4]: < 3 µM
- Potentiator Efficacy [1, 4]: ++ (++=0.3-0.6)

Structure (SMILES): COc1nc(N[C@H]2CC[C@@H](C)CC2)ncc1-c1ccc(OC(C)C)nc1 [Example 118, 5-(6-isopropoxypyridin-3-yl)-4-methoxy-N-((1s,4s)-4-methylcyclohexyl)pyrimidin-2-amine]
- EC50 [2]: < 10 µM
- Corrector Efficacy [2]: +++ (+++=>3)

Structure (SMILES): COc1nc(N[C@H]2CC[C@@H](C)CC2)ncc1-c1ccc(N2CCCCC2)nc1 [Example 119, 4-methoxy-N-((1s,4s)-4-methylcyclohexyl)-5-(6-(piperidin-1-yl)pyridin-3-yl)pyrimidin-2-amine]
- EC50 [2]: < 10 µM
- Corrector Efficacy [2]: +++ (+++=>3)

Structure (SMILES): COc1nc(N[C@H]2CC[C@@H](C)CC2)ncc1-c1ccc(OCC#N)cc1 [Example 125, 2-(4-(4-methoxy-2-((1s,4s)-4-methylcyclohexylamino)pyrimidin-5-yl)phenoxy)acetonitrile]
- EC50 [2]: > 20 µM
- Corrector Efficacy [2]: +++ (+++=>3)

Structure (SMILES): C[C@H]1CC[C@@H](Nc2ncc(-c3ccc(OCC#N)cc3)c(OCC3CC3)n2)CC1 [Example 133, 2-(4-(4-(cyclopropylmethoxy)-2-((1s,4s)-4-methylcyclohexylamino)pyrimidin-5-yl)phenoxy)acetonitrile]
- EC50 [2]: > 20 µM
- Corrector Efficacy [2]: +++ (+++=>3)

Structure (SMILES): COc1nc(N[C@H]2CC[C@@H](C)CC2)ncc1-c1ccnc(C#N)c1 [Example 143, 4-(4-methoxy-2-((1s,4s)-4-methylcyclohexylamino)pyrimidin-5-yl)picolinonitrile]
- EC50 [1, 4]: < 3 µM
- Potentiator Efficacy [1, 4]: ++ (++=0.3-0.6)

Structure (SMILES): C[C@H]1CC[C@@H](Nc2ncc(-c3ccc(OCC#N)cc3)c(OC3CCOC3)n2)CC1 (some centres unmarked) [Example 150, 2-(4-(2-((1s,4s)-4-methylcyclohexylamino)-4-(tetrahydrofuran-3-yloxy)pyrimidin-5-yl)phenoxy)acetonitrile]
- EC50 [2]: > 10 µM
- Corrector Efficacy [2]: +++ (+++=>3)

Structure (SMILES): C[C@H]1CC[C@@H](Nc2ncc(-c3ccc4c(c3)OCCO4)c(O[C@@H]3CCOC3)n2)CC1 [Example 201, 5-(2,3-dihydrobenzo[b][1,4]dioxin-6-yl)-N-((1s,4S)-4-methylcyclohexyl)-4-((R)-tetrahydrofuran-3-yloxy)pyrimidin-2-amine]
- EC50 [2]: ~10 µM
- Corrector Efficacy [2]: +++ (+++=>3)
